Laboratory results published in ChEMBL document CHEMBL3421618, “2,6,9-Trisubstituted purines as CRK3 kinase inhibitors with antileishmanial activity in vitro” (Bioorg Med Chem Lett, 2015).

What was measured:
[1] = Cytotoxicity against human BJ cells assessed as cell viability at 30 uM after 72 hrs by fluorescence assay relative to control
Leishmania = settings: at 30 µM
Description: Inhibition of Leishmania CRK3/CYC6 using histone H1/[gamma33-P]ATP as substrate at 30 uM after 30 mins relative to control

[2] = Inhibition of Leishmania CRK3/CYC6 using histone H1/[gamma33-P]ATP as substrate after 30 mins
[3] = Leshmanicidal activity against promastigote stage of Leishmania turanica MRHO/MN/08/BZ18 after 72 hrs by alamar blue staining-based fluorescence assay; format: functional
Leishmania major = assay: Leshmanicidal activity against promastigote stage of Leishmania major MHOM/IL/2003/LRC-L1025 […] after 72 hrs by alamar blue staining-based fluorescence assay; format: functional, organism-based; settings: MHOM/IL/2003/LRC-L1025, 72 h
Leishmania donovani = assay: Leshmanicidal activity against promastigote stage of Leishmania donovani MHOM/SD/1962/1S-c12d […] after 72 hrs by alamar blue staining-based fluorescence assay; format: functional, organism-based

`CC(C)n1cnc2c(NCc3ccc(O)cc3)nc(NCCCO)nc21` gave a viability at 72 h, 30 µM ([1]; BJ cells) of 84.9% and an inhibition (Leishmania) of 53.3%.
`CC(C)n1cnc2c(NCc3ccccc3O)nc(N[C@H]3CC[C@H](N)CC3)nc21` showed a viability at 72 h, 30 µM ([1]; BJ cells) of 90.4% and an inhibition (Leishmania) of 12.2%.
Molecule `CC(C)n1cnc2c(NCc3ccccc3)nc(NCCCO)nc21` [BOHEMINE] has a viability at 72 h, 30 µM ([1]; bj) of 120% and an inhibition (Leishmania) of 49.2%.
Work on `CC[C@H](CO)Nc1nc(NCc2cccc(OC)c2O)c2ncn(C(C)C)c2n1` yielded a viability at 72 h, 30 µM ([1]; BJ cells) of 89%, an IC50 [2] of 0.641 µM and an IC50 [3] of 35.4 µM. The IC50 (Leishmania major) was 98.5 µM, the IC50 (Leishmania donovani) was 95.9 µM and the inhibition (Leishmania) was 2%.
`CC(C)n1cnc2c(NCc3ccccc3)nc(NCCO)nc21` showed a viability at 72 h, 30 µM ([1]; BJ cells) of 74.2% and an inhibition (Leishmania) of 66.6%.
In the case of `CC[C@H](CO)Nc1nc(NCc2ccccc2N)c2ncn(C(C)C)c2n1`, the viability at 72 h, 30 µM ([1]; BJ cells) is reported as 95.7% and the inhibition (Leishmania) is reported as 9.8%.
`CC(C)n1cnc2c(NCc3ccccc3)nc(NCCCN)nc21` gave a viability at 72 h, 30 µM ([1]; BJ cells) of 100% and an inhibition (Leishmania) of 46.2%.
`CC(C)n1cnc2c(NCc3ccccc3O)nc(N3CCN(CC#N)CC3)nc21` showed a viability at 72 h, 30 µM ([1]; BJ cells) of 91.8% and an inhibition (Leishmania) of 71.7%.
Work on `CC[C@H](CO)Nc1nc(NCc2ccc(O)cc2)c2ncn(C(C)C)c2n1` yielded a viability at 72 h, 30 µM ([1]; BJ cells) of 91.6% and an inhibition (Leishmania) of 21.3%.
`CC[C@H](CO)Nc1nc(NCc2cccc(C)c2O)c2ncn(C(C)C)c2n1` gave a viability at 72 h, 30 µM ([1]; BJ cells) of 82.9%, an IC50 [2] of 1.65 µM and an IC50 [3] of 23 µM. The IC50 (Leishmania major) was 19.8 µM, the IC50 (Leishmania donovani) was 12.4 µM and the inhibition (Leishmania) was 3.3%.
For `CC[C@H](CO)Nc1nc(NCc2ccc(Br)cc2)c2ncn(C(C)C)c2n1`, the viability at 72 h, 30 µM ([1]; BJ cells) was 92.3%, the IC50 [3] was 20.1 µM and the IC50 (Leishmania major) was 19.4 µM. It also gave an IC50 (Leishmania donovani) of 16.8 µM and an inhibition (Leishmania) of 10%.
In the case of `CCOC(=O)c1ccc(Nc2nc(N[C@H](CC)CO)nc3c2ncn3C(C)C)cc1`, the viability at 72 h, 30 µM ([1]; BJ cells) is reported as 70.1% and the inhibition (Leishmania) is reported as 5.6%.
Work on `CC(C)n1cnc2c(NCc3ccccc3O)nc(NCc3ccccc3O)nc21` yielded a viability at 72 h, 30 µM ([1]; BJ cells) of 97.5% and an inhibition (Leishmania) of 37.8%.
With `CC[C@H](CO)Nc1nc(NCc2cccc(O)c2)c2ncn(C(C)C)c2n1` the viability at 72 h, 30 µM ([1]; BJ cells) was 85.6% and the inhibition (Leishmania) was 36.4%.
For `CC[C@H](CO)Nc1nc(Nc2ccc(S(=O)(=O)Nc3nc(C)cc(C)n3)cc2)c2ncn(C(C)C)c2n1`, the viability at 72 h, 30 µM ([1]; BJ cells) was 105% and the inhibition (Leishmania) was 1.2%.
For `CC(C)n1cnc2c(NCc3ccccc3)nc(N)nc21`, the viability at 72 h, 30 µM ([1]; BJ cells) was 72.2% and the inhibition (Leishmania) was 87.1%.
`CC(C)n1cnc2c(NCc3ccccc3)nc(NC[C@H](C)O)nc21` showed a viability at 72 h, 30 µM ([1]; BJ cells) of 94.7% and an inhibition (Leishmania) of 53.9%.
In the case of `COc1cccc(CNc2nc(N[C@H]3CC[C@H](N)CC3)nc3c2ncn3C(C)C)c1O`, the viability at 72 h, 30 µM ([1]; BJ cells) is reported as 87.9% and the inhibition (Leishmania) is reported as 10.8%.
`COc1cccc(CNc2nc(N[C@@H]3CCCC[C@H]3N)nc3c2ncn3C(C)C)c1O` showed a viability at 72 h, 30 µM ([1]; BJ cells) of 87.4% and an inhibition (Leishmania) of 33.6%.
With `CC(C)n1cnc2c(NCc3ccccc3O)nc(NCCCO)nc21` the viability at 72 h, 30 µM ([1]; BJ cells) was 85% and the inhibition (Leishmania) was 10.5%.
Work on `CC[C@H](CO)Nc1nc(NCc2ccc(OC)cc2O)c2ncn(C(C)C)c2n1` yielded a viability at 72 h, 30 µM ([1]; BJ cells) of 82.3% and an inhibition (Leishmania) of 53.1%.
`CC[C@H](CO)Nc1nc(NCc2cc(C)ccc2O)c2ncn(C(C)C)c2n1` showed a viability at 72 h, 30 µM ([1]; BJ cells) of 70.4%, an IC50 [2] of 0.162 µM and an IC50 [3] of 11.8 µM. It also gave an IC50 (Leishmania major) of 2.3 µM, an IC50 (Leishmania donovani) of 2.2 µM and an inhibition (Leishmania) of 0.4%.
For `CC[C@H](CO)Nc1nc(NCc2cc(OC)c(O)c(OC)c2)c2ncn(C(C)C)c2n1`, the viability at 72 h, 30 µM ([1]; BJ cells) was 103% and the inhibition (Leishmania) was 8.3%.
Molecule `CC(C)n1cnc2c(NCc3ccccc3)nc(NCCCCCC#N)nc21` has a viability at 72 h, 30 µM ([1]; BJ cells) of 77.8% and an inhibition (Leishmania) of 49%.
Molecule `CC[C@H](CO)Nc1nc(NCc2cc(O)cc(O)c2)c2ncn(C(C)C)c2n1` has a viability at 72 h, 30 µM ([1]; BJ cells) of 83.9% and an inhibition (Leishmania) of 15.9%.
With `CC(C)n1cnc2c(NCc3ccccc3)nc(N(CCO)CCO)nc21` the viability at 72 h, 30 µM ([1]; BJ cells) was 133% and the inhibition (Leishmania) was 47.1%.
With `CC(C)n1cnc2c(NCc3ccccc3O)nc(N3CCNCC3)nc21` the viability at 72 h, 30 µM ([1]; BJ cells) was 127% and the inhibition (Leishmania) was 55.6%.
In the case of `CC[C@H](CO)Nc1nc(NCc2ccccc2O)c2ncn(C(C)C)c2n1` [OLOMOUCINE II], the viability at 72 h, 30 µM ([1]; BJ cells) is reported as 79.8%, the IC50 [2] is reported as 0.59 µM and the IC50 [3] is reported as 11.9 µM. It also gave an IC50 (Leishmania major) of 47.2 µM, an IC50 (Leishmania donovani) of 62.4 µM and an inhibition (Leishmania) of 1.8%.
`CC(C)n1cnc2c(NCc3ccccc3)nc(NCCN)nc21` showed a viability at 72 h, 30 µM ([1]; BJ cells) of 95.2% and an inhibition (Leishmania) of 57.5%.
`CC(C)n1cnc2c(NCc3ccccc3)nc(NC[C@H](O)CN)nc21` showed a viability at 72 h, 30 µM ([1]; BJ cells) of 74.5% and an inhibition (Leishmania) of 43.2%.
`CC(C)n1cnc2c(NCc3ccccc3O)nc(N[C@@H]3CCCC[C@H]3N)nc21` gave a viability at 72 h, 30 µM ([1]; BJ cells) of 98.7% and an inhibition (Leishmania) of 29.4%.
`CC(C)n1cnc2c(NCc3cccc(O)c3)nc(NCCCO)nc21` showed a viability at 72 h, 30 µM ([1]; BJ cells) of 74.6% and an inhibition (Leishmania) of 64.6%.
Work on `CC[C@H](CO)Nc1nc(NC(CO)c2ccccc2)c2ncn(C(C)C)c2n1` (stereo not given in full) yielded a viability at 72 h, 30 µM ([1]; BJ cells) of 102% and an inhibition (Leishmania) of 33.5%.
Molecule `CC[C@H](CO)Nc1nc(NCc2cc(O)ccc2O)c2ncn(C(C)C)c2n1` has a viability at 72 h, 30 µM ([1]; BJ cells) of 97.7%, an IC50 [2] of 0.384 µM and an IC50 [3] of over 50 µM. It also gave an inhibition (Leishmania) of 1.5%.
Work on `CC[C@H](CO)Nc1nc(Nc2ccc(S(=O)(=O)NC(=N)N)cc2)c2ncn(C(C)C)c2n1` yielded a viability at 72 h, 30 µM ([1]; BJ cells) of 84.4%, an IC50 [2] of 0.115 µM and an IC50 [3] of over 50 µM. For the same molecule, the inhibition (Leishmania) was 0.3%.
`CC[C@H](CO)Nc1nc(NCc2ccccc2)c2ncn(C(C)C)c2n1` [SELICICLIB] gave a viability at 72 h, 30 µM ([1]; BJ cells) of 106% and an inhibition (Leishmania) of 38.6%.
For `CC(C)n1cnc2c(NCc3ccccc3)nc(NCCOCCO)nc21`, the viability at 72 h, 30 µM ([1]; BJ cells) was 69.9% and the inhibition (Leishmania) was 56.5%.
In the case of `CC[C@H](CO)Nc1nc(Nc2ccc(S(N)(=O)=O)cc2)c2ncn(C(C)C)c2n1`, the viability at 72 h, 30 µM ([1]; BJ cells) is reported as 76.7%, the IC50 [2] is reported as 0.214 µM and the IC50 [3] is reported as over 50 µM. It also gave an inhibition (Leishmania) of 2.2%.
Molecule `CC[C@H](CO)Nc1nc(NCc2cccc(O)c2O)c2ncn(C(C)C)c2n1` has a viability at 72 h, 30 µM ([1]; BJ cells) of 80.1%, an IC50 [2] of 0.314 µM and an IC50 [3] of over 50 µM. For the same molecule, the inhibition (Leishmania) was 2.6%.
